Calls of active or inactive are those of the source.
Assays:
[1] = biological target: Fructose-bisphosphate aldolase (Mycobacterium tuberculosis, UniProt P9WQA3); experiment: Fluorescence-based biochemical high throughput dose response assay for inhibitors of the fructose-bisphosphate aldolase (FBA) of M. tuberculosis.; type: functional
[2] = biological target: T1, Sentrin-specific protease 7 (Homo sapiens, UniProt Q9BQF6); type: functional;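 note: Luminescence-based dose-response confirmation of ultra-high-throughput screening hits, measuring inhibition of SENP7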
T1 sequence (Q9BQF6 whole entry): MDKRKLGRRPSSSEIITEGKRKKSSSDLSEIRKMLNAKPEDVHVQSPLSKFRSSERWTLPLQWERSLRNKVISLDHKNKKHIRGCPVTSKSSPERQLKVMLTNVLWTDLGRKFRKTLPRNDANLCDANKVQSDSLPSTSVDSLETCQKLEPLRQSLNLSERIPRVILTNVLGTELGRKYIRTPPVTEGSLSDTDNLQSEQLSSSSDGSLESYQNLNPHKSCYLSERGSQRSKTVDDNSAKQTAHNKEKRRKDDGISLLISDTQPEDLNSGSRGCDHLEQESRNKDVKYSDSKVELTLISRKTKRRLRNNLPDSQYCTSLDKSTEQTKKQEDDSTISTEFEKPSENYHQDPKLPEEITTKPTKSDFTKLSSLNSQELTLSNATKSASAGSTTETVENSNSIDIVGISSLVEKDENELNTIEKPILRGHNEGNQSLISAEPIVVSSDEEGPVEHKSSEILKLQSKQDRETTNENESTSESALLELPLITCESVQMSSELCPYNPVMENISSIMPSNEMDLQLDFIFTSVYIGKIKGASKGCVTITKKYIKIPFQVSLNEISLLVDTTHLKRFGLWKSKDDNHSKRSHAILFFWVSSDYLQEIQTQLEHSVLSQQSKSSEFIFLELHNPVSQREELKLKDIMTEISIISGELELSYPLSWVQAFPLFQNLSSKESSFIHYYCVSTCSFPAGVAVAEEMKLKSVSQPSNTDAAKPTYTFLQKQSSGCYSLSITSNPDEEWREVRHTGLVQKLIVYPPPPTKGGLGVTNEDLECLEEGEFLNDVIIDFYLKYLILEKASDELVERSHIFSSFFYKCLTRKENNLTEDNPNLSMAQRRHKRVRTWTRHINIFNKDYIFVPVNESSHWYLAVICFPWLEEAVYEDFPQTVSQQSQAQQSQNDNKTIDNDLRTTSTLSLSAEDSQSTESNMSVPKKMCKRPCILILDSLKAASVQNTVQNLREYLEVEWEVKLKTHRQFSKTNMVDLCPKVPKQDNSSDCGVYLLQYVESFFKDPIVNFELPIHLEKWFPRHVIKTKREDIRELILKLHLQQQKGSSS

[3] = biological target: T2, Sentrin-specific protease 8 (Homo sapiens, UniProt Q96LD8); type: functional;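 note: luminescence read-out of SENP8 inhibition, dose-response confirmation following an ultra-high-throughput screen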
T2 sequence (Q96LD8 whole entry): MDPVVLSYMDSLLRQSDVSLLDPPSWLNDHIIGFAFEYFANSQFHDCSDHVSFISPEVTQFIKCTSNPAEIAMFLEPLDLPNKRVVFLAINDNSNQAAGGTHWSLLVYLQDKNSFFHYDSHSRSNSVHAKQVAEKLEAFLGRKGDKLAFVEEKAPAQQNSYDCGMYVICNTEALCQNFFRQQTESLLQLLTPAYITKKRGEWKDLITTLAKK

Caspase-3 = biological target: T3, Caspase-3 (Homo sapiens, UniProt P42574); type: functional;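 note: Dose-response selectivity test against caspase-3 for candidate inhibitors of sentrin-specific proteases (SENPs)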
T3 sequence (P42574 whole entry): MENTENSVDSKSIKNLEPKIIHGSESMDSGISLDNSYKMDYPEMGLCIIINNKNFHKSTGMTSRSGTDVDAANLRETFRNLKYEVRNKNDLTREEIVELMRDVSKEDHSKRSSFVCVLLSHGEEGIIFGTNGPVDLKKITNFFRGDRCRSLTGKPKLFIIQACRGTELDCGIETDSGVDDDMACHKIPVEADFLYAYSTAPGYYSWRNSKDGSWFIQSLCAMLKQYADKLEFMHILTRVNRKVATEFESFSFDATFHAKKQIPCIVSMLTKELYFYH

[4] = biological target: T4, Sentrin-specific protease 6 (Homo sapiens, UniProt Q9GZR1); type: functional;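 note: Luminescence-based dose-response confirmatory assay of SENP6 inhibition, following up an ultra-high-throughput screen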
T4 sequence (Q9GZR1 whole entry): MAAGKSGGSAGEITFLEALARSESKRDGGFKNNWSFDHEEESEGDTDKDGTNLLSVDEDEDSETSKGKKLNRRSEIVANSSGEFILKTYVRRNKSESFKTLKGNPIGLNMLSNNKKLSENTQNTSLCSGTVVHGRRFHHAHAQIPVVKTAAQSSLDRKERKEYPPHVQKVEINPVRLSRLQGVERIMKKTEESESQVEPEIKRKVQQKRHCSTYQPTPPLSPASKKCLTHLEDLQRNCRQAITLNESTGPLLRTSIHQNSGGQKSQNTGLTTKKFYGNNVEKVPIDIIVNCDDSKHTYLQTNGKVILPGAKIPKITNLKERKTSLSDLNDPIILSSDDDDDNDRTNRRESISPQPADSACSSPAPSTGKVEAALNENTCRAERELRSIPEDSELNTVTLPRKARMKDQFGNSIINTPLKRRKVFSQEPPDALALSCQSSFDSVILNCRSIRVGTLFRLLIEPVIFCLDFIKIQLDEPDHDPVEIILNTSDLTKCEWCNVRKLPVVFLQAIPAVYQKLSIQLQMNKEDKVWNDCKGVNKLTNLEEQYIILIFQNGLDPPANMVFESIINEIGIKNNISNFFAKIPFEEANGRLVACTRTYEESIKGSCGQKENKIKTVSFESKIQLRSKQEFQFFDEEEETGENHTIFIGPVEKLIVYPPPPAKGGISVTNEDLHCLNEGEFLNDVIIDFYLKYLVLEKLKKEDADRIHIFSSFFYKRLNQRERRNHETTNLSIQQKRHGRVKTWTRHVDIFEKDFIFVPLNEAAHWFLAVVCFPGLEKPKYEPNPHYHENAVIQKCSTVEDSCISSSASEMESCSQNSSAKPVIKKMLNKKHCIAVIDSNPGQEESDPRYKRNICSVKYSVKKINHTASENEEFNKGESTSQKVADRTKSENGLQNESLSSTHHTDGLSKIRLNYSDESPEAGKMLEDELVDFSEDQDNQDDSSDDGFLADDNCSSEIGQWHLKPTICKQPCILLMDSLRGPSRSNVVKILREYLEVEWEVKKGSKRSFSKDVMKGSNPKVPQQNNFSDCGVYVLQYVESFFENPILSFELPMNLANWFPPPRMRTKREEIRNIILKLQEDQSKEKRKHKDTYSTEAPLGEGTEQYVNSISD

[5] = biological target: T5, Trace amine-associated receptor 1 (Homo sapiens, UniProt Q96RJ0); experiment: Fluorescence-based cell-based high throughput dose response assay to identify antagonists of the human trace amine associated receptor 1 (TAAR1).; type: functional
T5 sequence (Q96RJ0 whole entry): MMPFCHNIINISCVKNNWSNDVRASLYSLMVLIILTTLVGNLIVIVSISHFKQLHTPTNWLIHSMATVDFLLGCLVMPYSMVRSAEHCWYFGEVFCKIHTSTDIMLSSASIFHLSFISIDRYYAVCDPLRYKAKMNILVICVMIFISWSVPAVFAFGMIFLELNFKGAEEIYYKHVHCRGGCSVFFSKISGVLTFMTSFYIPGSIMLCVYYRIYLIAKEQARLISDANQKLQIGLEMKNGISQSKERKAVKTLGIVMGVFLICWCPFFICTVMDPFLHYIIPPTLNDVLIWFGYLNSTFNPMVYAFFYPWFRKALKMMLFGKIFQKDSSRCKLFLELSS

[6] = Counterscreen for […] of the human trace amine associated receptor 1 (TAAR1): Fluorescence-based cell-based high throughput dose response assay to identify nonselective Ga16 agonists.; type: functional
[7] = biological target: T5, Trace amine-associated receptor 1; experiment: Counterscreen for antagonists of the human trace amine associated receptor 1 (hTAAR1): Fluorescence-based cell-based high throughput dose response assay to identify TAAR1 Agonists.; type: functional
[8] = Counterscreen for antagonists of the human trace amine associated receptor 1 (hTAAR1): Fluorescence-based cell-based high throughput dose response assay to identify nonselective Ga16 antagonists.; type: functional
[9] = biological target: Induced myeloid leukemia cell differentiation protein Mcl-1 (Homo sapiens, UniProt Q07820); type: functional
Sequence of Induced myeloid leukemia cell differentiation protein Mcl-1 (Q07820 whole entry): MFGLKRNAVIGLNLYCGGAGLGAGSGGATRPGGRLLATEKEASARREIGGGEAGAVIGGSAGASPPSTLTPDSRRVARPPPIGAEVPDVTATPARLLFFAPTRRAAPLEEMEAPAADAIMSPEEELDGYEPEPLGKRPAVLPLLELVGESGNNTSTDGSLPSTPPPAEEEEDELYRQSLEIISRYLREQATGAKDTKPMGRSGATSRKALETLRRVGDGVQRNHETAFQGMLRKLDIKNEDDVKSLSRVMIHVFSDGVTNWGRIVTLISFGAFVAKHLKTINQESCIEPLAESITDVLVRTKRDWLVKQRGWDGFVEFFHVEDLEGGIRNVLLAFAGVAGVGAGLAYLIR

fMet-Leu-Phe receptor = fMet-Leu-Phe receptor (Homo sapiens, UniProt P21462); experiment: formyl peptide receptor binders – dose response (AID 519); type: functional
Sequence of fMet-Leu-Phe receptor (P21462 whole entry): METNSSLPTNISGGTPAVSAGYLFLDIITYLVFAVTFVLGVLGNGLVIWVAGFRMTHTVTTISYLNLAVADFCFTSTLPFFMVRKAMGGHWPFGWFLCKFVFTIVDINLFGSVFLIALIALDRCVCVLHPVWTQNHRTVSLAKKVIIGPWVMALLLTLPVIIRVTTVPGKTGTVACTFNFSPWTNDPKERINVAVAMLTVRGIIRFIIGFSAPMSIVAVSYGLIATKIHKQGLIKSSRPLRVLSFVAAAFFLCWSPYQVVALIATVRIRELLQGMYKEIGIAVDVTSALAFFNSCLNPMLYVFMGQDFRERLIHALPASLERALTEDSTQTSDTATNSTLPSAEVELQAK

Cytochrome P450 3A4 = Cytochrome P450 3A4 (Homo sapiens, UniProt P08684);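 note: CYP3A4 tested as one member of a cytochrome P450 panel screen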
Sequence of Cytochrome P450 3A4 (P08684 whole entry): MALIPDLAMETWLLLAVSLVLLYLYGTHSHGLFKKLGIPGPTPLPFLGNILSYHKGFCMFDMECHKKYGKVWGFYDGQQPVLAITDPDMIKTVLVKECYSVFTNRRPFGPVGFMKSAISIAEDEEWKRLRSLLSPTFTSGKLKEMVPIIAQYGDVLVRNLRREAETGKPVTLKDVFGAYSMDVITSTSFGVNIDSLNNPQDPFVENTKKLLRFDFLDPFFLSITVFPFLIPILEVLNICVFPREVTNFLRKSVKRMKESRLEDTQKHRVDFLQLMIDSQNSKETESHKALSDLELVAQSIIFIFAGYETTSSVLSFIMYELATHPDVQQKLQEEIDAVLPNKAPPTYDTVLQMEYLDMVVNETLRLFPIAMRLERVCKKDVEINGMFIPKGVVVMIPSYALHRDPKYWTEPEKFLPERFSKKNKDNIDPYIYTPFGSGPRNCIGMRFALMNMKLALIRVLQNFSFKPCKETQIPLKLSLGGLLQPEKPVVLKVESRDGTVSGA

[10] = T. cruzi growth inhibition in host cells, dose response, cell-based, plate reader, dry powder, set 2 (AID 652275); type: functional
[11] = viability loss in HepG2 hepatoma cells – cell-based, ATP luminescence, cherry-pick, activator set 2, cytotoxicity control, dose response (AID 1053143); type: functional
Bcl-2-related protein A1 [12] = biological target: T6, Bcl-2-related protein A1 (Mus musculus, UniProt Q07440); experiment: small-molecule antagonists of Bfl-1/BH3 interaction – biochemical, TR-FRET, mouse Bfl-1, confirmation (AID 621);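 note: TR-FRET binding of GST-Bfl-1 to FITC-labelled Bid peptide via terbium antibody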
T6 sequence (Q07440 whole entry): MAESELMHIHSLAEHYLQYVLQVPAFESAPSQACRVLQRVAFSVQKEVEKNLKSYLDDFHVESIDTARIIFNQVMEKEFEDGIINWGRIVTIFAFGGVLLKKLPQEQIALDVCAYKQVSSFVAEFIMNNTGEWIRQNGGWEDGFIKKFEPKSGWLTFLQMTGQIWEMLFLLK

Bcl-2-related protein A1 [13] = biological target: T6, Bcl-2-related protein A1; experiment: Bfl-1 binding inhibitors, SAR follow-up, biochemical, fluorescence polarization (AID 1070)
cells [14] = type: functional, cell-based
[15] = biological target: T5, Trace amine-associated receptor 1; experiment: Counterscreen for agonists of the human trace amine associated receptor 1 (hTAAR1): Fluorescence-based cell-based high throughput dose response assay to identify hTAAR1 agonist that also desensitize TAAR1 receptor response.; type: functional
[16] = biological target: T5, Trace amine-associated receptor 1; experiment: Fluorescence-based cell-based high throughput dose response assay to identify agonists of the human trace amine associated receptor 1 (TAAR1).; type: functional
cells [17] = type: functional, cell-based; remark: listed apart in the source

Sequence of Fructose-bisphosphate aldolase (P9WQA3 whole entry): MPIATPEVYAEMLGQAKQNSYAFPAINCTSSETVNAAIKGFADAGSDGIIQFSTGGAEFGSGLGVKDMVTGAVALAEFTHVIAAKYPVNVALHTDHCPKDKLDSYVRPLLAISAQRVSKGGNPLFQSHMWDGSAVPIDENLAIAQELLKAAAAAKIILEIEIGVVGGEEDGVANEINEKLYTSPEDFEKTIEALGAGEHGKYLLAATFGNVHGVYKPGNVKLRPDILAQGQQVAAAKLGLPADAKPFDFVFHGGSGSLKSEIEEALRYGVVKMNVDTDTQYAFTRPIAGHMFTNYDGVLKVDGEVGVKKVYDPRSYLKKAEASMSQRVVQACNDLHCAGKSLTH

For `S=C(c1ccc(OCc2ccccc2)cc1)N1CCCC1`, the IC50 [1] was > 9.98 µM (inactive), the IC50 [2] was 14 µM (active) and the IC50 [3] was 3.69 µM (active). For the same compound, the IC50 (Caspase-3) was 8.38 µM (active) and the IC50 [4] was 11.1 µM (active).

For `O=C(NCCn1cc(SCc2ccccc2F)c2ccccc21)c1c(F)cccc1F`, the IC50 [5] was 3.49 µM (active), the EC50 [6] was > 29.9 µM (inactive) and the EC50 [7] was > 29.9 µM (inactive). For the same compound, the IC50 [8] was 38.4 µM (inactive).

For `O=C(NC1CCCCC1)c1sc(=S)n2c1[nH]c(=O)c1ccccc12`, the IC50 [9] was > 54 µM (active), the Ki (fMet-Leu-Phe receptor) was 40.6 µM (inactive) and the AC50 (Cytochrome P450 3A4) was 0.794 µM (inconclusive).

For `C[C@H]1CN([C@@H](C)CO)C(=O)c2cccc(NC(=O)c3ccncc3)c2O[C@@H]1CN(C)Cc1cccc(Cl)c1`, the AC50 [10] was 0.0155 µM (active).

For `CCOc1ccc2oc(C(=O)Nc3cc(C)ccn3)c(C)c2c1`, the AC50 [11] was 26 µM (active).

For `COc1ncccc1-c1nnn(-c2ccc(F)cc2)n1`, the AC50 [11] was 26 µM (active), the IC50 (Bcl-2-related protein A1 [12]) was > 100 µM (not active) and the IC50 (Bcl-2-related protein A1 [13]) was > 100 µM (not active).

In the case of `O=C(O)[C@H]1CCCC[C@H]1C(=O)NCCc1ccccc1`, the EC50 (cells [14]) is reported as > 29.9 µM (inactive), the IC50 [15] is reported as 7.35 µM (active) and the EC50 [16] is reported as 0.37 µM (active). The IC50 (cells [17]) was > 29.9 µM (inactive).

Source: ChEMBL document CHEMBL1201862, “PubChem BioAssay data set” (2004)
